# Tests used:
# [1] = test system: "mixed" leucocyte suspension; test: In vitro labelling of a mixed leucocyte suspension from patients (Example 6); type: cell-based
# Method: (§1) Hexamethylpropylene-amineoxime (HMPAO) forms a lipid-soluble neutral complex with ^99mTc which is rapidly incorporated into leucocytes in vitro. In six patients with suspected or known inflammatory disease, a "mixed" leucocyte suspension isolated from 85 ml blood anticoagulated with acid-citrate-dextrose was labelled by ^99mTc-HMPAO with a mean efficiency of 47%, of which 78% was taken up by granulocytes. […] Four patients also received ¹¹¹In-labelled "pure" granulocytes.
# (§2) This experiment is described in more detail in The Lancet, October 25 1986, pages 946-949.
# inflammatory disease = test: Imaging of inflammatory disease in patients with labelled leucocytes (Example 6); type: in vivo
# Method: as §1, §2
smiles,measurement,setting,value
C/C(=N\[O-])[C@@H](C)[N-]CC(C)(C)C[N-][C@H](C)/C(C)=N/O.[O]=[99Tc+3] (racemic) [^99mTc-HMPAO],retention of label in granulocytes in vitro,[1]; elution compared with other cell types,remained firmly labelled
same,share of the label taken up by granulocytes,[1]; of the cell-bound label,78%
same,mean labelling efficiency,"[1]; six patients, leucocytes from 85 ml blood anticoagulated with acid-citrate-dextrose",47%
same,granulocyte recovery in blood,"inflammatory disease; at 30-40 min, mean",32%
same,"image detail compared with ¹¹¹In-labelled ""pure"" granulocytes",inflammatory disease; four patients also received ¹¹¹In-labelled granulocytes,comparable or superior to the ¹¹¹In images
same,detection of inflammatory disease by imaging,"inflammatory disease; six patients, from 30 min (five patients) or 3 h (sixth), remained positive at 20-24 h",All six patients were positive for inflammatory disease
